Key:
[1] = system: EAAT1-5 subtypes; conditions: cited from earlier work; for inhibitory activity compared with L-TBOA: prior application of the inventors
[2] = system: glutamate receptor; conditions: prior art statement; cited from earlier work
[3] = Photolysis with UV lamp, photolysis rate measured by HPLC; assay type: physicochemical; conditions: buffer, pH 7.4
Description: Photolysis was conducted by the known method (Takaoka, K. et al., Bioorganic & Medicinal Chemistry Letters, 13, 965-970, 2003), and the obtained samples were quantified by HPLC or a glutamate uptake assay.
The caged inhibitor was dissolved to 100 μM in a PBS(+) solution [140 mM NaCl, 5 mM KCl, 8 mM Na2HPO4, 1.5 mM KH2PO4, 1 mM CaCl2, 1 mM MgCl2, pH 7.4], and a 300 μL portion of the solution was placed in a quartz cuvette with a 1 mm optical path and situated at a location at 10 cm from a UV lamp (Spectroline ENF-260C/J, product of Spectronics Co.), and then covered with a black box and irradiated with 365 nm UV rays at room temperature for 1-120 minutes. The luminous energy under these conditions was approximately 0.5 J/cm^2 with 10 minutes of irradiation. The irradiated sample was quantified by HPLC.
The sample was subjected to UV irradiation for a prescribed period and then analyzed by HPLC [column: SP-120-5-ODS-AP (Daiso CO.); eluent, CH3CN:H2O:TFA=32:68:0.1 or gradient from CH3CN:H2O:TFA=32:68:0.1 to 50:50:0.1], and the concentration was determined from the ratio of UV absorption at 254 nm with respect to an internal substance (3′,4′-dimethoxyacetophenone, 10 μM). The percentage with respect to the concentration prior to irradiation was calculated and graphed, and the half-life was determined.

half-life (photolysis, decay of caged compound) [3] | Structure (SMILES) | inhibitory activity compared with L-TBOA [1] | other results
– | COc1ccc(C(=O)Nc2cccc(CO[C@H](C(=O)O)[C@H](N)C(=O)O)c2)cc1 [PMB-TBOA] | more powerful inhibitory activity than L-TBOA | –
– | N[C@H](C(=O)O)[C@H](OCc1ccccc1)C(=O)O [L-TBOA, L-threo-β-benzyloxyaspartate] | – | blocker activity on glutamate transporters ([1]; prior art statement): Particularly powerful blocker activity; affinity for glutamate receptor compared to existing inhibitors [2]: lower affinity for glutamate receptor compared to existing inhibitors
– | N[C@H](C(=O)O)[C@H](OCc1cccc(NC(=O)c2ccc(C(F)(F)F)cc2)c1)C(=O)O [TFB-TBOA] | more powerful inhibitory activity than L-TBOA | –
19 min | O=C(O)COc1ccc2c(COC(=O)N[C@H](C(=O)O)[C@H](OCc3ccccc3)C(=O)O)cc(=O)oc2c1 [5a, (2S,3S)-3-benzyloxy-N-[7-(carboxymethoxy)coumarin-4-ylmethoxy]carbonylaspartate] | – | –
7.8 min | O=C(O)COc1cc2oc(=O)cc(COC(=O)N[C@H](C(=O)O)[C@H](OCc3ccccc3)C(=O)O)c2cc1OCC(=O)O [5b, (2S,3S)-3-benzyloxy-N-[6,7-bis(carboxymethoxy)coumarin-4-ylmethoxy]carbonylaspartate] | – | –
